Literature values as cited in patent US20070041998A1, “Use of alum and a th1 immune response inducing adjuvant for enhancing immune responses” (Intercell AG, priority 2003, published 2007).
Where no end group is shown, it is not given here.

How the values were obtained:
Staphylococcus aureus = conditions: Staphylococcus aureus-infected mice
human neutrophils = conditions: via cell surface calreticulin

Substance: KLKLLLLLKLK-NH2 [synthetic antimicrobial peptide (Nakajima 1997; Cho 1999)]
- chemotherapeutic activity (Staphylococcus aureus): significant chemotherapeutic activity
- production of superoxide anion (O2−) (human neutrophils): activated to produce the superoxide anion
